According to patent US20030082135A1, “Pathway of RANTES-mediated chemokine synthesis in astrocytes and methods of use therefor” (priority 2001, published 2003):

What was measured:
Type in all cases: cell-based, mouse
[1] = tested on: CXCR4, CX3CR1, CCR1, CCR5 transcripts in astrocytes; assay: RPA for chemokine receptor transcripts in astrocytes; conditions: average, pooled results of 3-4 experiments
Description: RNA isolation and RNase protection assay (RPA). RNA was prepared as in Luo, Y., et al. 1999. J Immunol 163:3985. RNase protection assays (RPA) for chemokine message were conducted with multi-probe templates according to the manufacture's protocol (RiboQuant assay kit, BD-PharMingen, San Diego, Calif.). Gels were scanned and radioactive bands quantitated using a phosphoimager (Molecular Dynamics, Sunnyvale, Calif.). Levels of uniformly expressed housekeeping genes large ribosomal subunit protein 32-3A (L32) or glyceraldehyde-3-phosphate dehydrogenase (GAPDH), were used for normalization. The value of each chemokine receptor band divided by the value of the indicated housekeeping gene band in the same sample yielded the relative intensity. Normalized receptor expression represents the ratio of the relative intensity following treatment with chemokine versus the relative intensity of medium alone.
Treatment with the RANTES-related chemokines RANTES or eotaxin, or with TNF-α also found to down-regulate expression of CX3CR1 transcripts. In addition, CXCR4 mRNA levels were decreased, while the levels of CCR1 transcripts were elevated. In contrast, little or no regulation of CCR5 was noted. The pooled results of 3-4 experiments indicate eotaxin caused an average 60% decrease in CXCR4 (P less than 0.01) and a 70% decrease in CX3CR1 mRNA (P less than 0.02) (FIG. 8.B). The effects of RANTES stimulation were similar with an average 70 and 90% reduction in CXCR4 and CX3CR1 transcripts, respectively (P less than 0.01).

[2] = tested on: MEK, ERK1/2, p90RSK, p38, SAPK/JNK phosphorylation in astrocytes; assay: Western blotting of phosphorylated MAP kinase pathway proteins in astrocyte lysates
Description: SDS-PAGE and Western blotting. Astrocytes were treated for the indicated time with media or 100 ng/ml RANTES, eotaxin, or other materials as indicated. Cells (3×10^5 in Examples 1-3, or 2×10^4 in later Examples) were resuspended in 100 μl buffer (50 mM HEPES, pH 7.5, 150 mM NaCl, 2 mM EDTA, 2 mM EGTA, 1% Triton X-100, 50 mM Sodium fluoride, 5 mM Sodium pyrophosphate, 50 mM Sodium β-glycerophosphate, 1 mM Sodium Ortho-vanadate, 1 mM DTT, 1 mM PMSF, 10 μg/ml Leupeptin, and 10 μg/ml Aprotinin). Protein concentration of the whole cell extract was determined by BCA protein assay kit (Pierce, Rockford, Ill.). Samples (10 μg) were loaded and separated on a 10% SDS-polyacrylamide gel. After transfer to Hybond ECL nitrocellulose membrane (Amersham Pharmacia Biotech Inc, Piscataway, N.J.) or Zeta-probe blotting membranes (Bio-Rad, Richmond Calif.) blots were blocked overnight with 5% BSA at 4° C., and probed with the antibody indicated. Antibody against unphosphorylated or phosphorylated erk (Cell Signaling, Beverly, Mass.) was used at 1 μg/ml. Appropriate anti-immunoglobulin reagents were used to develop the blots by enhanced chemiluminescence (Amersham Pharmacia Biotech Inc, Piscataway, N.J.).
Little is known about the signaling mechanisms involved in astrocyte respones to chemokines. To examine components of the RANTES signal transduction pathway, phosphorylation of the MAP kinase kinase (MEK) and mitogen activated protein (MAP) kinases was examined. To minimize basal kinase activity, astrocytes were starved of serum for at least 3 h before treatment with chemokine. Whole cell lysates were separated by SDS-PAGE and examined by Western blot. Antibodies that specifically react with phosphorylated MEK or phosphorylated extracellular signal-related kinase (ERK) were used to detect the active kinases.

Raf-1 = Raf-1 kinase activity in lysates of treated astrocytes (phosphorylation of MEK); conditions: 100 ng/ml RANTES
Description: FIG. 12 is a set of bar graphs and a photograph of a Western blot showing that RANTES activated Raf-1 kinase activity in astrocytes. Panel A. Astrocytes were stimulated with 100 ng/ml RANTES for the indicated times and cell lysates were prepared for analysis of Raf-1 activity. Values are presented as relative Raf-1 kinase activity (percent) and represent the mean±S.E.M. of triplicate experiments. Panel B. Astrocytes were stimulated with 100 ng/ml RANTES for the indicated times and cell lysates were prepared for analysis by Western blotting. Blots were stained with anti phospho-Raf (Ser 259) Ab or control anti-Raf Ab. Panel C. […] Astrocytes were pretreated with the indicated doses of Raf-1 inhibitor for 1 h and then stimulated with 100 ng/ml RANTES for 3 h. Total RNA was prepared and assayed by RPA for expression of message for the indicated proinflammatory mediators and the housekeeping genes L32 and GAPDH. Representative data from one of three similar experiments are presented. […]
It is herein shown that RANTES induced Raf-1 kinase activity in 1 to 5 min; Raf-1 kinase activity peaked after 5-10 min (FIG. 12A). […] Increased Raf-1 enzyme activity was accompanied by dephosphorylation of Ser 259, an inhibitory phosphate site detected by a specific anti-Raf (Ser 259) antibody (FIG. 12B).

GFAP in astrocytes = assay: Immunofluorescence of GFAP in astrocytes; conditions: 100 ng/ml RANTES for 1-5 days
Description: Astrocytes associated with Alzheimer's Disease, MS and EAE lesions frequently display increased levels of the intracellular marker GFAP, an indicator of astrogliosis (Xu et al., 1999. Glia 25:390-403). To determine if chemokines could modulate GFAP expression astrocytes were treated with 100 ng/ml RANTES for 1-5 days and then examined for the intracellular marker GFAP by conventional immunofluorescence. Evidence for modulation of GFAP was not observed.

## RANTES
[1]
  decrease in CX3CR1 mRNA: 90%
  decrease in CXCR4 mRNA: 70%
[2]; 100 ng/ml RANTES
  duration of phosphorylation of MEK, ERK1 and ERK2: over 2 h
  duration of phosphorylation of RSK: over 2 h
  phosphorylation state of Raf-1 Ser 259: dephosphorylation
  time of appearance of phosphorylation of MEK, ERK1 and ERK2: ≤ 5 min
  time of peak phosphorylation of MEK, ERK1 and ERK2: 20 to 60 min
  time of peak phosphorylation of RSK: 60 min
[2]; 100 ng/ml RANTES, Ser381, Thr360/Ser364, Thr574
  time of appearance of phosphorylation of RSK: ≤ 5 min
[2]; 100 ng/ml, 20 min, 5 to 120 min
  phosphorylation of p38 or SAPK/JNK: failed to phosphorylate
Raf-1
  time of peak Raf-1 kinase activity: 5 to 10 min
GFAP in astrocytes
  modulation of GFAP: not observed
